Results taken from patent US11267823B2, “Substituted 1,2,3,3a,4,5,7,9,13,13a-decahydropyrido[1′,2′:4,5]pyrazino[1,2-a]pyrrolo[1,2-c]pyrimidines having HIV integrase inhibitory activity” (Shionogi & Co., Ltd., priority 2005, dated 2022).

System: VSV-g pseudotyped HIV vector that expresses luciferase (PHIV)
Assay: microbe, parasite or virus in culture
Type: cell-based
Conditions: Human immunodeficiency virus 1, HEK-293T, 48 h, read-out: PHIV IC50

Row | Compound | IC50 [nM]
1 | C[C@@H]1[C@H](c2ccccc2)OC2Cn3cc(C(=O)NCc4ccc(F)cc4F)c(=O)c(O)c3C(=O)N21 (stereo partly drawn) [Example Z-15, (2S,3R)—N-[(2,4-Difluorophenyl)methyl]-6-hydroxy-3-methyl-5,7-dioxo-2-phenyl-2,3,5,7,11,11a-hexahydro[1,3]oxazolo[3,2-a]pyrido[1,2-d]pyrazine-8-carboxamide] | < 10
2 | O=C(NCc1ccc(F)cc1F)c1cn2c(c(O)c1=O)C(=O)N1[C@H](Cc3ccccc3)CO[C@H]1C2 [Example Z-16, (3R,11aS)—N-[(2,4-Difluorophenyl)methyl]-6-hydroxy-5,7-dioxo-3-(phenylmethyl)-2,3,5,7,11,11a-hexahydro[1,3]oxazolo[3,2-a]pyrido[1,2-d]pyrazine-8-carboxamide] | < 10
3 | CC(C)C[C@@H]1CO[C@H]2Cn3cc(C(=O)NCc4ccc(F)cc4F)c(=O)c(O)c3C(=O)N12 [Example Z-17, (3R,11aS)—N-[(2,4-Difluorophenyl)methyl]-6-hydroxy-3-(2-methylpropyl)-5,7-dioxo-2,3,5,7,11,11a-hexahydro[1,3]oxazolo[3,2-a]pyrido[1,2-d]pyrazine-8-carboxamide] | < 10
4 | O=C(NCc1ccc(F)cc1F)c1cn2c(c(O)c1=O)C(=O)N1CC3CCCCN3[C@H]1C2 (stereo partly drawn) [Example Z-18, (3aR,14aR)—N-[(2,4-Difluorophenyl)methyl]-11-hydroxy-10,12-dioxo-1,2,3,4,5a,6,10,12,14,14a-decahydropyrido[1,2-d]pyrido[1′,2′:3,4]imidazo[1,2-d]pyrazine-9-carboxamide] | < 10
5 | COC[C@H]1[C@H](c2ccccc2)OC2Cn3cc(C(=O)NCc4ccc(F)cc4F)c(=O)c(O)c3C(=O)N21 (some centres unmarked) [Example Z-19] | < 10
6 | O=C(NCc1ccc(F)cc1F)c1cn2c(c(O)c1=O)C(=O)N1[C@@H](CC3CCCCC3)CO[C@@H]1C2 [Example Z-20] | 10 to 100
7 | CC(C)[C@H]1CO[C@@H]2Cn3cc(C(=O)NCc4ccc(F)cc4F)c(=O)c(O)c3C(=O)N12 [Example Z-21, (3S,11aR)—N-[(2,4-Difluorophenyl)methyl]-6-hydroxy-3-(1-methylethyl)-5,7-dioxo-2,3,5,7,11,11a-hexahydro[1,3]oxazolo[3,2-a]pyrido[1,2-d]pyrazine-8-carboxamide] | < 10
8 | O=C(NCc1ccc(F)cc1F)c1cn2c(c(O)c1=O)C(=O)N1C(C2)O[C@@H]2Cc3ccccc3[C@@H]21 (stereo partly drawn) [Example Z-22, (5aR,14aS)—N-[(2,4-Difluorophenyl)methyl]-12-hydroxy-11,13-dioxo-5a,6a,7,11,13,14a-hexahydro-5H-indeno[1′,2′:4,5][1,3]oxazolo[3,2-a]pyrido[1,2-d]pyrazine-10-carboxamide] | < 10
9 | O=C(NCc1ccc(F)cc1F)c1cn2c(c(O)c1=O)C(=O)N1[C@H](C2)O[C@@H](c2ccccc2)[C@H]1c1ccccc1 [Example Z-23, (2S,3R,11aS)—N-[(2,4-Difluorophenyl)methyl]-6-hydroxy-5,7-dioxo-2,3-diphenyl-2,3,5,7,11,11a-hexahydro[1,3]oxazolo[3,2-a]pyrido[1,2-d]pyrazine-8-carboxamide] | < 10
10 | O=C(NCc1ccc(F)cc1F)c1cn2c(c(O)c1=O)C(=O)N1[C@H](c3ccccc3)[C@H](c3ccccc3)O[C@@H]1C2 [Example Z-24, (2S,3R,11aR)—N-[(2,4-Difluorophenyl)methyl]-6-hydroxy-5,7-dioxo-2,3-diphenyl-2,3,5,7,11,11a-hexahydro[1,3]oxazolo[3,2-a]pyrido[1,2-d]pyrazine-8-carboxamide] | < 10
11 | CC(C)[C@@H]1CO[C@H]2Cn3cc(C(=O)NCc4ccc(F)cc4F)c(=O)c(O)c3C(=O)N21 [Example Z-25, (3R,11aS)—N-[(2,4-Difluorophenyl)methyl]-6-hydroxy-3-(1-methylethyl)-5,7-dioxo-2,3,5,7,11,11a-hexahydro[1,3]oxazolo[3,2-a]pyrido[1,2-d]pyrazine-8-carboxamide] | < 10
12 | CSCC[C@H]1CO[C@@H]2Cn3cc(C(=O)NCc4ccc(F)cc4F)c(=O)c(O)c3C(=O)N12 [Example Z-26, (2S,11aR)—N-[(2,4-Difluorophenyl)methyl]-6-hydroxy-3-[2-(methylthio)ethyl]-5,7-dioxo-2,3,5,7,11,11a-hexahydro[1,3]oxazolo[3,2-a]pyrido[1,2-d]pyrazine-8-carboxamide] | < 10
13 | CS(=O)(=O)CC[C@H]1CO[C@@H]2Cn3cc(C(=O)NCc4ccc(F)cc4F)c(=O)c(O)c3C(=O)N12 [Example Z-27, (3S,11aR)—N-[(2,4-Difluorophenyl)methyl]-6-hydroxy-3-[2-(methylsulfonyl)ethyl]-5,7-dioxo-2,3,5,7,11,11a-hexahydro[1,3]oxazolo[3,2-a]pyrido[1,2-d]pyrazine-8-carboxamide] | > 100
14 | O=C(NCc1ccc(F)cc1F)c1cn2c(c(O)c1=O)C(=O)N1[C@@H](Cc3c[nH]c4ccccc34)CO[C@@H]1C2 [Example Z-28, (3S,11aR)—N-[(2,4-Difluorophenyl)methyl]-6-hydroxy-3-(1H-indo-3-ylmethyl)-5,7-dioxo-2,3,5,7,11,11a-hexahydro[1,3]oxazolo[3,2-a]pyrido[1,2-d]pyrazine-8-carboxamide] | < 10
15 | CC(C)CN1CC[C@@H](C)N2C(=O)c3c(O)c(=O)c(C(=O)NCc4ccc(F)cc4)cn3C[C@H]12 [Example Z-29, (4R,12aR)—N-[(4-fluorophenyl)methyl]-7-hydroxy-4-methyl-1-(2-methylpropyl)-6,8-dioxo-6-[(phenylmethyl)oxy]-1,2,3,4,6,8,12,12a-octahydropyrido[1′,2′:4,5]pyrazino[1,2-a]pyrimidine-9-carboxamide] | < 10
16 | CC(C)N1CC[C@@H](C)N2C(=O)c3c(O)c(=O)c(C(=O)NCc4ccc(F)cc4)cn3C[C@H]12 [Example Z-30, (4R,12aR)—N-[(4-Fluorophenyl)methyl]-7-hydroxy-4-methyl-1-(1-methylethyl)-6,8-dioxo-1,2,3,4,6,8,12,12a-octahydropyrido[1′,2′:4,5]pyrazino[1,2-a]pyrimidine-9-carboxamide] | < 10
17 | CC(C)CN1CC[C@H](C)N2C(=O)c3c(O)c(=O)c(C(=O)NCc4ccc(F)cc4F)cn3C[C@@H]12 [Example Z-31, (4S,12aS)—N-[(2,4-Difluorophenyl)methyl]-7-hydroxy-4-methyl-1-(2-methylpropyl)-6,8-dioxo-1,2,3,4,6,8,12,12a-octahydropyrido[1′,2′:4,5]pyrazino[1,2-a]pyrimidine-9-carboxamide] | < 10
18 | C[C@H]1CCN(CC2CC2)[C@@H]2Cn3cc(C(=O)NCc4ccc(F)cc4F)c(=O)c(O)c3C(=O)N12 [Example Z-32, (4S,12aS)-1-(Cyclopropylmethyl)-N-[(2,4-difluorophenyl)methyl]-7-hydroxy-4-methyl-7-hydroxy-4-methyl-6,8-dioxo-1,2,3,4,6,8,12,12a-octahydropyrido[1′,2′:4,5]pyrazino[1,2-a]pyrimidine-9-carboxamide] | < 10
19 | C[C@H]1CCN(Cc2ccco2)[C@@H]2Cn3cc(C(=O)NCc4ccc(F)cc4F)c(=O)c(O)c3C(=O)N12 [Example Z-33, (4S,12aS)—N-[(2,4-Difluorophenyl)methyl]-1-(1-furanylmethyl)-7-hydroxy-4-methyl-6,8-dioxo-1,2,3,4,6,8,12,12a-octahydropyrido[1′,2′:4,5]pyrazino[1,2-a]pyrimidine-9-carboxamide] | < 10
20 | C[C@H]1CCN(Cc2nccs2)[C@@H]2Cn3cc(C(=O)NCc4ccc(F)cc4F)c(=O)c(O)c3C(=O)N12 [Example Z-34, (4S,12aS)—N-[(2,4-Difluorophenyl)methyl]-7-hydroxy-4-methyl-6,8-dioxo-1-(1,3-thiazol-2-ylmethyl)-1,2,3,4,6,8,12,12a-octahydropyrido[1′,2′:4,5]pyrazino[1,2-a]pyrimidine-9-carboxamide] | < 10
21 | O=C(NCc1ccc(F)cc1F)c1cn2c(c(O)c1=O)C(=O)N1[C@H](C2)N[C@H]2CCCC[C@@H]21 [Example Z-39, (6aR,7aS,11aS)—N-[(2,4-Difluorophenyl)methyl]-1-hydroxy-2,13-dioxo-2,6a,7,7a,8,9,10,11,11a,13-decahydro-6H-pyrido[1′,2′:4,5]pyrazino[1,2-a]benzimidazole-3-carboxamide] | < 10
22 | O=C(NCc1ccc(F)cc1F)c1cn2c(c(O)c1=O)C(=O)N1[C@@H](C2)N[C@H]2CCCC[C@@H]21 [Example Z-40, (6aS,7S,11aS)—N-[(2,4-Difluorophenyl)methyl]-1-hydroxy-2,13-dioxo-2,6a,7,7a,8,9,10,11,11a,13-decahydro-6H-pyrido[1′,2′:4,5]pyrazino[1,2-a]benzimidazole-3-carboxamide] | < 10
23 | O=C(NCc1ccc(F)cc1F)c1cn2c(c(O)c1=O)C(=O)N1C[C@@H]3CCCCN3[C@@H]1C2 [Example Z-41, (5aS,14aS)—N-[(2,4-Difluorophenyl)methyl]-11-hydroxy-10,12-dioxo-1,2,3,4,5a,6,10,12,14,14a-decahydropyrido[1,2-a]pyrido[1′,2′:4,5]imidazo[1,2-d]pyrazine-9-carboxamide] | < 10
24 | O=C(NCc1ccc(F)cc1F)c1cn2c(c(O)c1=O)C(=O)N1CC[C@H]3CCCCN3[C@H]1C2 [Example Z-42, (4aR,14aR)—N-[(2,4-Difluorophenyl)methyl]-9-hydroxy-8,10-dioxo-2,3,4,4a,5,6,8,10,14,14a-decahydro-1H-pyrido[1,2-c]pyrido[1′,2′:4,5]pyrazino[1,2-a]pyrimidine-11-carboxamide] | < 10
25 | CC(C)CCN1CC[C@@H](C)N2C(=O)c3c(O)c(=O)c(C(=O)NCc4ccc(F)cc4F)cn3C[C@H]12 [Example Z-43] | < 10
26 | CC(C)N1CC[C@H](C)N2C(=O)c3c(O)c(=O)c(C(=O)NCc4ccc(F)cc4F)cn3C[C@@H]12 [Example Z-44, (4S,12aS)—N-[(2,4-Difluorophenyl)methyl]-7-hydroxy-4-methyl-1-(1-methylethyl)-6,8-dioxo-1,2,3,4,6,8,12,12a-octahydropyrido[1′,2′:4,5]pyrazino[1,2-a]pyrimidine-9-carboxamide] | < 10
